Results published in patent US9457099B2, “Polyethylene glycol-based dendrons” (RUTGERS, THE STATE UNIVERSITY OF NEW JERSEY, priority 2010, dated 2016).

Experiments:
[1] = Dynamic light scattering (DLS) analysis of dendrons; format: physicochemical; details: sample concentration 1 mg/mL, 4° C.
Method: PEGtides were purified on an Alliance reverse-phase high-performance liquid chromatography (RP-HPLC) system (Waters, Mass.) using a Symmetry C18 column (4.6×150 mm, 100 Å, particle size 5 μm). Following mobile phase was used: solvent A, 0.05% aqueous TFA; and solvent B, acetonitrile containing 0.05% TFA. A linear gradient of 95% to 70% of A was applied for 60 min at a flow rate of 1 mL/min. The UV absorptions were monitored at 220 and 250 nm, whereas fluorescence detector was set with excitation and emission wavelengths of 492 and 518 nm, respectively. The dendrons and there derivatives were quantified on a F-7000 fluorescence spectrophotometer (HITACHI, Japan). Mass spectra were acquired on an ABI-MDS SCIEX 4800 matrix-assisted laser desorption/ionisation-time of flight (MALDI-TOF/TOF) mass spectrometer (AB Sciex, Foster City, Calif.). Sample solutions (2 μL) were mixed with matrix solution (20 μL, 20 mg/mL sinapinic acid in 50% aqueous acetonitrile containing 0.1% TFA). This mixture (1 μL) was spotted onto sample holder and dried under a gentle stream of argon at room temperature. All spectra were recorded in positive mode using a linear acquisition method. The dynamic light scattering (DLS) experiments were performed on a Wyatt Dynapro Titan instrument (Wyatt Technology, Santa Barbara, Calif.) with sample concentration of 1 mg/mL. […]

[2] = tested on: J774.E murine macrophage cells; experiment: Quantitative macrophage uptake of dendrons (5-FAM fluorescence of cell lysate), with mannan inhibition; format: cell-based
Method: (§1) J774.E murine macrophage cells were grown as attached cells in a CO2 water-jacketed incubator (Form a Scientific Inc., Marietta, Ohio) with a humidified 5% CO2 atmosphere at 37° C. The cells were maintained in RPMI-1640 (GIBCO) containing 10% fetal bovine serum (FBS), 100 U/mL penicillin, and 100 μg/mL streptomycin/mL. The cells were seeded two days before experiment to 24-well plates at 0.5×10^5 cells/well for quantitative uptake measurement or to chambered coverglass (LAB-TEK II) at 1×10^5 cell/chamber for confocal microscopy. Cells were incubated with G3.0-Mannose (40 nM) in HBSS at 37° C. for 1 hr. For confocal microscopy, the incubation included the additional 0.16 mg/mL of the general endocytosis marker rhodamine B-labeled dextran (10,000 MW) and the nuclear dye DAPI. For Mannan inhibition studies, cells were pre-incubated with mannan (10 mg/mL) for 1 hr, followed by incubation with G3.0-Mannose, with or without rhodamine B-dextran/DAPI plus 10 mg/mL of mannan. After incubation, the unbound molecules were washed thrice using cold DPBS buffer. PEGtide dendron G3.0 (40 nM) (without mannose) was used as a negative control of mannose receptor-mediated cellular uptake.
(§2) In quantitative uptake experiments, the washed cells were lysed in wells overnight with 150 μL of 1 N NaOH solution and neutralized the next day with 150 μL of 1 N HCl solution, resulting in 300 μL of cell lysate/well. 250 μL of cell lysate was transferred to a well of a 96-well plate for 5-FAM fluorescence measurement on Tecan GENIOS fluorescent plate reader (Phenix Research Products, Hayward, Calif.). The total cell-associated fluorescence reading was converted into total cell-associated dendron amount using a separately established dendron's fluorescence standard curve. A small fraction of the lysate (about 50 μL, depending on cell density plated) was used to determine total cellular protein/well by Bradford Protein Assay. The total cellular protein/well was used to normalize the dendron amount/well to correct well-to-well variation in cell mass.

[3] = tested on: J774.E murine macrophage cells; experiment: Confocal microscopy of dendron uptake; format: cell-based; details: 40 nM, 1 hr, with rhodamine B-labeled dextran and DAPI
Method: as §1, with “For Mannan inhibition studies, cells were pre-incubated with mannan (10 mg/mL) for 1 hr, followed by incubation with G3.0-Mannose, with or without rhodamine B-dextran/DAPI plus 10 mg/mL of mannan. After incubation, the unbound molecules were washed thrice using cold DPBS buffer. PEGtide dendron G3.0 (40 nM) (without mannose) was used as a negative control of mannose receptor-mediated cellular uptake.” left out
as §2, with “A small fraction of the lysate (about 50 μL, depending on cell density plated) was used to determine total cellular protein/well by Bradford Protein Assay. The total cellular protein/well was used to normalize the dendron amount/well to correct well-to-well variation in cell mass.” left out

Cell viability MTT assay = format: cell-based; details: mouse, J774.E murine macrophage cells; 40 nM in HBSS for 2 hours; mean±standard deviation (n=6); read-out: cell relative viability (MTT)
Method: (1) Prepared MTT solution in PBS (pH 7.4) with final concentration of 5 mg/mL.
(2) Cultured J774.E muring macrophage cells with G3.0-Mannose, G3.0 and PAMAM G1.0, with each concentration of 40 nM, in HBSS for 2 hours. 6 replicates were applied. (n=6).
(3) Aspirated off the culture medium and washed with DPBS for three times for each well.
(4) 100 μL of HBSS and 25 μL of MIT solution were added to each well. Placed the plate in incubator at 37° C. overnight.
(5) Aspirated off the HBSS/MTT solution. Added 200 μL of DMSO for dissolving the crystals.
(6) Transferred to plate reader and measure the absorption at 570 nm.

## O=C(O)CCNC(=O)[C@H](CCCCNC(=O)c1ccc2c(c1)C(=O)OC21c2ccc(O)cc2Oc2cc(O)ccc21)NC(=O)CCOCCOCCOCCOCCOCCOCCNC(=O)[C@H](CCCCNC(=O)CCNC(=O)CCOCCOCCOCCOCCOCCOCCNC(=O)[C@H](CCCCNC(=O)CCNC(=O)CCOCCOCCOCCOCCOCCOCCNC(=O)[C@H](CCCCNC(=O)CCNC(=O)CCOCCOCCOCCOCCOCCOCCNC(=S)Nc1ccc(O[C@H]2O[C@H](CO)[C@@H](O)[C@H](O)[C@@H]2O)cc1)NC(=O)CCNC(=O)CCOCCOCCOCCOCCOCCOCCNC(=S)Nc1ccc(O[C@H]2O[C@H](CO)[C@@H](O)[C@H](O)[C@@H]2O)cc1)NC(=O)CCNC(=O)CCOCCOCCOCCOCCOCCOCCNC(=O)[C@H](CCCCNC(=O)CCNC(=O)CCOCCOCCOCCOCCOCCOCCNC(=S)Nc1ccc(O[C@H]2O[C@H](CO)[C@@H](O)[C@H](O)[C@@H]2O)cc1)NC(=O)CCNC(=O)CCOCCOCCOCCOCCOCCOCCNC(=S)Nc1ccc(O[C@H]2O[C@H](CO)[C@@H](O)[C@H](O)[C@@H]2O)cc1)NC(=O)CCNC(=O)CCOCCOCCOCCOCCOCCOCCNC(=O)[C@H](CCCCNC(=O)CCNC(=O)CCOCCOCCOCCOCCOCCOCCNC(=O)[C@H](CCCCNC(=O)CCNC(=O)CCOCCOCCOCCOCCOCCOCCNC(=S)Nc1ccc(O[C@H]2O[C@H](CO)[C@@H](O)[C@H](O)[C@@H]2O)cc1)NC(=O)CCNC(=O)CCOCCOCCOCCOCCOCCOCCNC(=S)Nc1ccc(O[C@H]2O[C@H](CO)[C@@H](O)[C@H](O)[C@@H]2O)cc1)NC(=O)CCNC(=O)CCOCCOCCOCCOCCOCCOCCNC(=O)[C@H](CCCCNC(=O)CCNC(=O)CCOCCOCCOCCOCCOCCOCCNC(=S)Nc1ccc(O[C@H]2O[C@H](CO)[C@@H](O)[C@H](O)[C@@H]2O)cc1)NC(=O)CCNC(=O)CCOCCOCCOCCOCCOCCOCCNC(=S)Nc1ccc(O[C@H]2O[C@H](CO)[C@@H](O)[C@H](O)[C@@H]2O)cc1 [G3.0-Mannose]
[1]
  hydrodynamic radius (DLS): 90.6 nm
[2]; 40 nM in HBSS at 37° C. for 1 hr, normalized to total cellular protein
  quantitative uptake in macrophage: 699.6 ± 1.8 pmol/µg
[2]; 40 nM, 1 hr
  specificity for mannose receptor (uptake vs non-mannosylated G3.0): 53 fold
[2]; 40 nM, 1 hr, cells pre-incubated 1 hr and co-incubated with mannan 10 mg/mL
  uptake in presence of mannan (mannan inhibition): 7.5 ± 4.7 pmol/µg
[3]
  intracellular green fluorescence (5-FAM), confocal microscopy: prominent only in G3.0-Mannose treated cells
Cell viability MTT assay
  viability at 2 h, 0.04 µM: 96.4 ± 7.81%
